Measured values from US11542259B2, “Compounds for the treatment of kinase-dependent disorders” (Exelixis, Inc., priority 2018, dated 2023).

Legend:
Type in all cases: cell-based
AXL = AXL (Homo sapiens (Human), UniProt P30530); assay: AXL autophosphorylation ELISA in A-172 cells; settings: cellular, Gas6 stimulated
Method: A-172 glioblastoma cells (ATCC #CRL-1620) were seeded at 2.5×10^5 cells/well onto 24-well plates (Greiner #662165), in DMEM (Thermo Fisher #11995-040) containing 10% FBS (Thermo Fisher #26140-079), 1% MEM NEAA (Thermo Fisher #11140-050), 1% GlutaMax (Thermo Fisher #35050-061) and 1% Penicillin Streptomycin (Thermo Fisher #15140-122). A-172 cells were incubated at 37° C., 5% CO2 for 24 h and then starved for 24 h in serum-free medium. Test compounds were serially diluted to produce an 8-point dose curve in fresh serum-free medium to a final concentration of 0.3% DMSO (vehicle) and added to the cells and incubated for 1 h. Cells were then stimulated with 1 μg/mL recombinant human Gas6 (R&D Systems #885-GSB-500) for 15 min, washed with cold PBS and immediately lysed with 150 μL of cold 1× lysis buffer [20 mM Tris, 137 mM sodium chloride, 2 mM EDTA, 10% glycerol, 1% NP-40 alternative, 1 mM activated sodium orthovanadate, 1 mM PefaBloc SC (Sigma-Aldrich #11429868001), protease/phosphatase inhibitor tablet (Thermo Fisher #A32959)]. Lysates were collected and 100 μL/well added into the human phospho-AXL DuoSet IC ELISA (R&D Systems #DYC2228-2). Assay was performed according to manufacturer's instructions and sample phospho-AXL concentrations were extrapolated using human phospho-AXL control (R&D Systems #841645) as a standard. Positive control wells (100% activity) contained Gash-stimulated, DMSO-treated cell lysates. Negative control wells (0% activity) contained Gash-stimulated, reference inhibitor-treated cell lysates. IC50 values were calculated by nonlinear regression analysis using a 4-parameter logistic curve fit in ActivityBase XE (IDBS).

Met = Met (Homo sapiens (Human), UniProt P08581); assay: Met autophosphorylation ELISA in PC-3 cells; settings: cellular, HGF stimulated, read-out: c-Met IC50
Met, sequence (P08581 25-1390): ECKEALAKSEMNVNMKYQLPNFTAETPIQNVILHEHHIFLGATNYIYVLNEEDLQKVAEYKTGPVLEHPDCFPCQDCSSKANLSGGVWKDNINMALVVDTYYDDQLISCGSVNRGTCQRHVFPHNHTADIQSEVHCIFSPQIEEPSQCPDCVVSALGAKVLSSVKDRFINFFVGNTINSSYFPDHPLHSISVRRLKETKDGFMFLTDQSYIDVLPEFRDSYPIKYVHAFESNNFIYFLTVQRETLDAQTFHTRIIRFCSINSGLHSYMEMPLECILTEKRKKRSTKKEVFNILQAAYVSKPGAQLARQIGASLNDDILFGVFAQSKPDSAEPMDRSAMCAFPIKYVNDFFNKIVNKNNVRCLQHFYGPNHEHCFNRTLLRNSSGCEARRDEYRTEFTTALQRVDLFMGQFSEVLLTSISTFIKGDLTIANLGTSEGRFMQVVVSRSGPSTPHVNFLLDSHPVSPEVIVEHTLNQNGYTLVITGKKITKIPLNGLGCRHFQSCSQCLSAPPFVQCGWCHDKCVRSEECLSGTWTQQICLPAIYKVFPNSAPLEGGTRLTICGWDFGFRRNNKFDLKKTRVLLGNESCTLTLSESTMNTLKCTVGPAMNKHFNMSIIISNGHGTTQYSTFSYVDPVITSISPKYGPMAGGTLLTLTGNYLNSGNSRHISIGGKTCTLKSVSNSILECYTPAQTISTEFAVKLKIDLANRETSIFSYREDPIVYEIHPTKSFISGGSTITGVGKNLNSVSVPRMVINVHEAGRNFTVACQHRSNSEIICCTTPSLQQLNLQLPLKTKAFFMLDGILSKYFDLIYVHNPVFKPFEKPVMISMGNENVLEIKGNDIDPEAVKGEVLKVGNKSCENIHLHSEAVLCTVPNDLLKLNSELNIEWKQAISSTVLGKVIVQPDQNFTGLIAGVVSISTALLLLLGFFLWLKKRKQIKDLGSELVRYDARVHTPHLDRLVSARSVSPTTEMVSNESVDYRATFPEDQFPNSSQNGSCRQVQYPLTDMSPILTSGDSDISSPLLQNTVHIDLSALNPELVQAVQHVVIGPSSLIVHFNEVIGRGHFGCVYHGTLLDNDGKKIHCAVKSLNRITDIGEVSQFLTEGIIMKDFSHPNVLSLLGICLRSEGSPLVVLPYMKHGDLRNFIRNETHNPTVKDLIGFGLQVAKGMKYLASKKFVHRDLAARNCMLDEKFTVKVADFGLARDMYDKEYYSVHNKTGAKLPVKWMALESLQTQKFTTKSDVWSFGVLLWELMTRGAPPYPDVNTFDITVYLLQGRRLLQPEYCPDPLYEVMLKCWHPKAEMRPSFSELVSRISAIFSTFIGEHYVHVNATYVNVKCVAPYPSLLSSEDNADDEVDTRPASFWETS
Method: PC-3 prostate cancer cells (ATCC #CRL-1435) were seeded at 4×10^4 cells/well onto 24-well plates (Greiner #662165), in DMEM (Thermo Fisher #11995-040) containing 10% FBS (Thermo Fisher #26140-079), 1% MEM NEAA (Thermo Fisher #11140-050), 1% GlutaMax (Thermo Fisher #35050-061), and 1% Penicillin Streptomycin (Thermo Fisher #15140-122). PC-3 cells were incubated at 37° C., 5% CO2 for 24 h and then starved for 3 h in serum-free medium. Test compounds were serially diluted to produce an 8-point dose curve in fresh serum-free medium to a final concentration of 0.3% DMSO (vehicle) and added to the cells and incubated for 1 h. Cells were then stimulated with 100 ng/mL recombinant human HGF (R&D Systems #294-HG-250) for 10 min, washed with cold PBS and immediately lysed with 130 μL of cold 1× lysis buffer [20 mM Tris, 137 mM sodium chloride, 2 mM EDTA, 10% glycerol, 1% NP-40 alternative, 1 mM activated sodium orthovanadate, 1 mM PefaBloc SC (Sigma-Aldrich #11429868001), protease/phosphatase inhibitor tablet (Thermo Fisher #A32959)]. Lysates were clarified by centrifugation and 100 μL/well added into the PathScan phospho-Met (panTyr) Sandwich ELISA (Cell Signaling Technology #7333). Assay was performed according to manufacturer's instructions. Positive control wells (100% activity) contained HGF-stimulated, DMSO-treated cell lysates. Negative control wells (0% activity) contained HGF-stimulated, reference inhibitor-treated cell lysates. IC50 values were calculated by nonlinear regression analysis using a 4-parameter logistic curve fit in ActivityBase XE (IDBS).

KDR = KDR (Homo sapiens (Human), UniProt P35968); assay: KDR autophosphorylation ELISA in HUVEC cells; settings: cellular, VEGF165 stimulated
KDR, sequence (P35968 20-1356): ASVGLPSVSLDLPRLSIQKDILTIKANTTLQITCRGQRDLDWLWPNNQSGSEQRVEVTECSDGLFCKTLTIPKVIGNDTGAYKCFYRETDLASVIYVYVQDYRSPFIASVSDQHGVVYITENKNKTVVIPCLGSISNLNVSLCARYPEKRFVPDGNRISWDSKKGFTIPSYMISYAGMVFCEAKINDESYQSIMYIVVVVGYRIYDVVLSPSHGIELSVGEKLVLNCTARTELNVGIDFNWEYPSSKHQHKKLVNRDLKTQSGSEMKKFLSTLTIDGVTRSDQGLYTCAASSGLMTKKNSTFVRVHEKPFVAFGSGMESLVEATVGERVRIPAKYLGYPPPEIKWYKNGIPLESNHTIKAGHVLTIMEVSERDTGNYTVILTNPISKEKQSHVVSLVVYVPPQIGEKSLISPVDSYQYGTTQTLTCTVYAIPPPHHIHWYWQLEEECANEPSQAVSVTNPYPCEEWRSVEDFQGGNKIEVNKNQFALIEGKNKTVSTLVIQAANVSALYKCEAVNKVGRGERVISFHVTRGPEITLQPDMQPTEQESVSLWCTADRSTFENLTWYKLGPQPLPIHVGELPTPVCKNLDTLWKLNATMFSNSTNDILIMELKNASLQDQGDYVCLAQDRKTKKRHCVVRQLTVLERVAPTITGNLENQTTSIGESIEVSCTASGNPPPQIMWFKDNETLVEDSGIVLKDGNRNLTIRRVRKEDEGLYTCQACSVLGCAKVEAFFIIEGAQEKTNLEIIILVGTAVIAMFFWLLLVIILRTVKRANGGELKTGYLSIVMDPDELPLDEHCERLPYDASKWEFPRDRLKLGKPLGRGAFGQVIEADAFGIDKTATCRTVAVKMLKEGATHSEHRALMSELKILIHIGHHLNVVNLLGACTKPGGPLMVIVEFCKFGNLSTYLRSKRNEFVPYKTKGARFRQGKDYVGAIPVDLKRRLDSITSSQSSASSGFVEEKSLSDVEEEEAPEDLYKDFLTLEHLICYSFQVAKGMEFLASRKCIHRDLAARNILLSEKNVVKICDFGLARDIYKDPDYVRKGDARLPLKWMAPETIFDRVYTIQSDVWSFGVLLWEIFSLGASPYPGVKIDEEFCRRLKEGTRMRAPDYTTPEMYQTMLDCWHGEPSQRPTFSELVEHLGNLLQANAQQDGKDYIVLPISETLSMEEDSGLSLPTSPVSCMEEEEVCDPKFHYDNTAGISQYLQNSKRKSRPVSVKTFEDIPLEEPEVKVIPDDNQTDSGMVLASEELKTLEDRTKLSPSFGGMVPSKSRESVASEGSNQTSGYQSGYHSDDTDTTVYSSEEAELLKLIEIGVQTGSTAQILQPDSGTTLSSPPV
Method: Human umbilical vein endothelial cells or HUVEC (Lonza #C2519A) were seeded at 2×10^4 cells/well onto 96-well plates (Corning #3904), in EGM-2 growth medium (Lonza #CC-3162) containing 1% Penicillin Streptomycin (Thermo Fisher #15140-122). HUVEC cells were incubated at 37° C., 5% CO2 for 24 h and then starved for 24 h in serum-free EBM-2 basal medium (Lonza #CC-3156) containing 1% Penicillin Streptomycin. Test compounds were serially diluted to produce an 8-point dose curve in fresh serum-free medium to a final concentration of 0.3% DMSO (vehicle) and added to the cells and incubated for 1 h. Cells were then stimulated with 100 ng/mL recombinant human VEGF165 (R&D Systems #293-VE-500) for 5 min, washed with cold PBS, and immediately lysed with 130 μL of cold 1× lysis buffer [20 mM Tris, 137 mM sodium chloride, 2 mM EDTA, 10% glycerol, 1% NP-40 alternative, 1 mM activated sodium orthovanadate, 1 mM PefaBloc SC (Sigma-Aldrich #11429868001), protease/phosphatase inhibitor tablet (Thermo Fisher #A32959)]. Lysates were collected and 100 μL/well added into the human phospho-KDR DuoSet IC ELISA (R&D Systems #DYC1766-2). Assay was performed according to manufacturer's instructions and sample phospho-KDR concentrations were extrapolated using human phospho-KDR control (R&D Systems #841421) as a standard. Positive control wells (100% activity) contained VEGF165-stimulated, DMSO-treated cell lysates. Negative control wells (0% activity) contained non-stimulated cell lysates. IC50 values were calculated by nonlinear regression analysis using a 4-parameter logistic curve fit in ActivityBase XE (IDBS).

AXL, sequence (P30530 26-894): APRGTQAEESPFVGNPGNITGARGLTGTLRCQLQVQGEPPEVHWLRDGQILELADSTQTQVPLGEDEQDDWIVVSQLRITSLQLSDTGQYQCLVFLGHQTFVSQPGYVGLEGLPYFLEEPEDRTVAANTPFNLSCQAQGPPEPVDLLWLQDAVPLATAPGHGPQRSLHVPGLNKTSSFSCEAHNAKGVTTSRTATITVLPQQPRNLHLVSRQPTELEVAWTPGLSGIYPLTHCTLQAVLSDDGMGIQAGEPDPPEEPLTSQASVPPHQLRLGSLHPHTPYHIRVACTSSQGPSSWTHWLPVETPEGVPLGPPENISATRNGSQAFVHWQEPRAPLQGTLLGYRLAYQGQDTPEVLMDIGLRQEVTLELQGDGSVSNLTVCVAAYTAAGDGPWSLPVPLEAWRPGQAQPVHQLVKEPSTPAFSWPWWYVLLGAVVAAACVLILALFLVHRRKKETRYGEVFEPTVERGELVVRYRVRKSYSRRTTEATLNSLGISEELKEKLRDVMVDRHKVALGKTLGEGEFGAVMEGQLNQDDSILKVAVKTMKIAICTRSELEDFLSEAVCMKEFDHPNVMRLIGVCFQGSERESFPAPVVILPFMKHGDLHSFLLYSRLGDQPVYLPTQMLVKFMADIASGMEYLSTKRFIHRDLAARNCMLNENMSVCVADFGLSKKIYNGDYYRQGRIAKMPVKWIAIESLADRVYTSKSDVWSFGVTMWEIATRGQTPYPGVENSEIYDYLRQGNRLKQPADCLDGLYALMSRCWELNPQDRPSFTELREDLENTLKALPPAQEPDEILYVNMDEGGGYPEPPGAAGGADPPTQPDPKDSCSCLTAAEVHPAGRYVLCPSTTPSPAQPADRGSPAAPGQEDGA

Structure (SMILES): CNc1cc2nccc(Oc3ccc(NC(=O)C4(C(=O)Nc5ccc(F)cc5)CC4)cc3)c2cc1C(N)=O [Compound 82, 1-N-[4-[6-Carbamoyl-7-(methylamino)quinolin-4-yl]oxyphenyl]-1-N′-(4-fluorophenyl)cyclopropane-1,1-dicarboxamide]
- IC50 (AXL): 10 to 100 nM
- IC50 (Met): 10 to 100 nM
- IC50 (KDR): 10 to 100 nM

Structure (SMILES): Nc1cc2nccc(Oc3ccc(NC(=O)C4(C(=O)Nc5ccc(F)cc5)CC4)cc3)c2cc1C(=O)O [Compound 89, 7-Amino-4-[4-[[1-[(4-fluorophenyl)carbamoyl]cyclopropane-carbonyl]amino]phenoxy]quinoline-6-carboxylic Acid]
- IC50 (AXL): > 300 nM
- IC50 (Met): > 300 nM
- IC50 (KDR): > 300 nM

Structure (SMILES): NC(=O)c1cc2c(Oc3ccc(NC(=O)C4(C(=O)Nc5ccc(F)cc5)CC4)cc3)ccnc2cc1N [Compound 87, 1-N-[4-(7-Amino-6-carbamoylquinolin-4-yl)oxyphenyl]-1-N′-(4-fluorophenyl)cyclopropane-1,1-dicarboxamide]
- IC50 (AXL): 100 to 300 nM
- IC50 (Met): 100 to 300 nM
- IC50 (KDR): > 300 nM

Structure (SMILES): CNC(=O)c1cc2c(Oc3ccc(NC(=O)C4(C(=O)Nc5c(C)cc(F)cc5C)CC4)cc3F)ccnc2cc1OC [Compound 267, 1-N′-(4-Fluoro-2,6-dimethylphenyl)-1-N-[3-fluoro-4-[7-methoxy-6-(methylcarbamoyl)quinolin-4-yl]oxyphenyl]cyclopropane-1,1-dicarboxamide]
- IC50 (AXL): 10 to 100 nM
- IC50 (Met): 100 to 300 nM
- IC50 (KDR): 100 to 300 nM

Structure (SMILES): NS(=O)(=O)c1ccc2nccc(Oc3ccc(NC(=O)C4(C(=O)Nc5ccc(F)cc5)CC4)cc3)c2c1 [Compound 209, 1-N′-(4-Fluorophenyl)-1-N-[4-(6-sulfamoylquinolin-4-yl)oxyphenyl]cyclopropane-1,1-dicarboxamide]
- IC50 (AXL): 100 to 300 nM
- IC50 (Met): 100 to 300 nM
- IC50 (KDR): 10 to 100 nM

Structure (SMILES): CNC(=O)c1cc2c(Oc3ccc(NC(=O)C4(C(=O)N(C)c5ccc(F)cc5)CC4)cc3F)ccnc2cc1OC [Compound 262, 1-N-[3-Fluoro-4-[7-methoxy-6-(methylcarbamoyl)quinolin-4-yl]oxyphenyl]-1-N′-(4-fluorophenyl)-1-N′-methylcyclopropane-1,1-dicarboxamide]
- IC50 (AXL): > 300 nM
- IC50 (Met): > 300 nM
- IC50 (KDR): > 300 nM

Structure (SMILES): CNc1cc2nccc(Oc3ccc(NC(=O)C4(C(=O)Nc5ccc(F)cc5)CC4)cc3)c2cc1C(=O)OC [Compound 84, Methyl 4-[4-[[1-[(4-fluorophenyl)carbamoyl]cyclopropane-carbonyl]amino]phenoxy]-7-(methylamino)quinoline-6-carboxylate]
- IC50 (AXL): ≤ 10 nM
- IC50 (Met): 10 to 100 nM
- IC50 (KDR): ≤ 10 nM

Structure (SMILES): NC(=O)c1cc2c(Oc3ccc(NC(=O)C4(C(=O)Nc5ccc(F)cc5)CC4)cc3)ccnc2cc1OCCO [Compound 106, 1-N-[4-[6-Carbamoyl-7-(2-hydroxyethoxy)quinolin-4-yl]oxyphenyl]-1-N′-(4-fluorophenyl)cyclopropane-1,1-dicarboxamide]
- IC50 (AXL): ≤ 10 nM
- IC50 (Met): 10 to 100 nM
- IC50 (KDR): ≤ 10 nM

Structure (SMILES): CNC(=O)c1cc2c(Oc3ccc(NC(=O)C4(C(=O)N(C)c5ccc(F)cc5)CC4)cc3)ccnc2cc1OC [Compound 263, 1-N′-(4-Fluorophenyl)-1-N-[4-[7-methoxy-6-(methylcarbamoyl)quinolin-4-yl]oxyphenyl]-1-N′-methylcyclopropane-1,1-dicarboxamide]
- IC50 (AXL): > 300 nM
- IC50 (Met): > 300 nM
- IC50 (KDR): > 300 nM

Structure (SMILES): COC(=O)Nc1ccc2c(Oc3ccc(NC(=O)C4(C(=O)Nc5ccc(F)cc5)CC4)cc3)ccnc2c1 [Compound 282, Methyl N-[4-[4-[[1-[(4-fluorophenyl)carbamoyl]cyclopropanecarbonyl]-amino]phenoxy]quinolin-7-yl]carbamate]
- IC50 (AXL): 100 to 300 nM
- IC50 (Met): 100 to 300 nM
- IC50 (KDR): > 300 nM

Structure (SMILES): NS(=O)(=O)c1ccc2c(Oc3ccc(NC(=O)C4(C(=O)Nc5ccc(F)cc5)CC4)cc3)ccnc2c1 [Compound 254, 1-N′-(4-Fluorophenyl)-1-N-[4-(7-sulfamoylquinolin-4-yl)oxyphenyl]cyclopropane-1,1-dicarboxamide]
- IC50 (AXL): 100 to 300 nM
- IC50 (Met): 100 to 300 nM
- IC50 (KDR): > 300 nM

Structure (SMILES): O=C(Nc1ccc(F)cc1)C1(C(=O)Nc2ccc(Oc3ccnc4ccc(-c5ccn[nH]5)cc34)cc2)CC1 [Compound 204, 1-N′-(4-Fluorophenyl)-1-N-[4-[6-(1H-pyrazol-5-yl)quinolin-4-yl]oxyphenyl]cyclopropane-1,1-dicarboxamide]
- IC50 (AXL): 10 to 100 nM
- IC50 (Met): 10 to 100 nM
- IC50 (KDR): 10 to 100 nM

Structure (SMILES): CO/N=C/c1cc2c(Oc3ccc(NC(=O)C4(C(=O)Nc5ccc(F)cc5)CC4)cc3)ccnc2cc1OC [Compound 193, 1-N′-(4-Fluorophenyl)-1-N-[4-[7-methoxy-6-[(E)-methoxyiminomethyl]quinolin-4-yl]oxyphenyl]cyclopropane-1,1-dicarboxamide]
- IC50 (AXL): 10 to 100 nM
- IC50 (Met): 100 to 300 nM
- IC50 (KDR): 100 to 300 nM
